Source: patent publication US12509457B2, “Bicyclic nitrogen containing heterocycles as inhibitors of salt-induced kinase SIK2” (priority 2019, dated 2025)
Where two headings read alike, the source gives them in different places.

Key:
Assay type in all cases: biochemical
[1] = biological target: SIK2 (Homo sapiens, UniProt Q9H0K1); test: SIK2 kinase assay, IMAP fluorescence polarization; conditions: 50 or 100 μM ATP; average; read-out: SIK2-AVERAGE Ki
[2] = biological target: SIK1 (Homo sapiens, UniProt P57059); test: SIK1 kinase assay, IMAP fluorescence polarization; conditions: 50 or 100 μM ATP; average; read-out: SIK1-AVERAGE Ki
[3] = biological target: SIK3 (Homo sapiens, UniProt Q9Y2K2); test: SIK3 kinase assay, IMAP fluorescence polarization; conditions: 50 or 100 μM ATP; average; read-out: SIK3-AVERAGE Ki
[4] = biological target: Abl (Homo sapiens, UniProt P00519); test: Abl kinase assay, IMAP fluorescence polarization; conditions: 50 or 100 μM ATP; average; read-out: Abl-AVERAGE Ki
[5] = biological target: Src (Homo sapiens, UniProt P12931); test: Src kinase assay, IMAP fluorescence polarization; conditions: 50 or 100 μM ATP; average; read-out: Src-AVERAGE Ki
[6] = biological target: EPHA2 (Homo sapiens, UniProt P29317); test: EPHA2 kinase assay, IMAP fluorescence polarization
EPHA2, sequence (P29317 24-976): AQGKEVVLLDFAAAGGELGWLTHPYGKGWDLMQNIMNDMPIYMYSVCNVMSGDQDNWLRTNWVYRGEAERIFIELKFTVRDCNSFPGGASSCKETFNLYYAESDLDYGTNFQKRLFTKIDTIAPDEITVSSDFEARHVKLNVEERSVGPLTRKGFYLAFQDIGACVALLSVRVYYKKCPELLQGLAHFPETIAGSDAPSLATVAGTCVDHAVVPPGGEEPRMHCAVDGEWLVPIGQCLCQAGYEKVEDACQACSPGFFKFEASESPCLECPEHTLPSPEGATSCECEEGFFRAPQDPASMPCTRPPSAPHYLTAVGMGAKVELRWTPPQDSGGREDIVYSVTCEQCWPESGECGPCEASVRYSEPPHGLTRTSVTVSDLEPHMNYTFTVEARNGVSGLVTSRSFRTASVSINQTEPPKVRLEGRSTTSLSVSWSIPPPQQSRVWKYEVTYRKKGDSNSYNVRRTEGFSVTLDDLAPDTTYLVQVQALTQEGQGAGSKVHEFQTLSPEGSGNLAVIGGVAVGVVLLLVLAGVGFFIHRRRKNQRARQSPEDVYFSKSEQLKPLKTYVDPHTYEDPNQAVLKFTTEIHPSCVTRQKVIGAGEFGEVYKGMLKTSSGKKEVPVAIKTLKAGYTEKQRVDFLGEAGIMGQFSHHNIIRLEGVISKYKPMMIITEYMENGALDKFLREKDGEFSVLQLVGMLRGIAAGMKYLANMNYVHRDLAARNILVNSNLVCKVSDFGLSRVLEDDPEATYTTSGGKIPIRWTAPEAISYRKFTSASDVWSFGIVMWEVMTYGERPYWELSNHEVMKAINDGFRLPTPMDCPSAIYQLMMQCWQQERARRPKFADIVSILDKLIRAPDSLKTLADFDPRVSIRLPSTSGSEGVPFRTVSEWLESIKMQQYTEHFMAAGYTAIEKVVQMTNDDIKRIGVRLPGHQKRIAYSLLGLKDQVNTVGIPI

SIK1, sequence (P57059 whole entry): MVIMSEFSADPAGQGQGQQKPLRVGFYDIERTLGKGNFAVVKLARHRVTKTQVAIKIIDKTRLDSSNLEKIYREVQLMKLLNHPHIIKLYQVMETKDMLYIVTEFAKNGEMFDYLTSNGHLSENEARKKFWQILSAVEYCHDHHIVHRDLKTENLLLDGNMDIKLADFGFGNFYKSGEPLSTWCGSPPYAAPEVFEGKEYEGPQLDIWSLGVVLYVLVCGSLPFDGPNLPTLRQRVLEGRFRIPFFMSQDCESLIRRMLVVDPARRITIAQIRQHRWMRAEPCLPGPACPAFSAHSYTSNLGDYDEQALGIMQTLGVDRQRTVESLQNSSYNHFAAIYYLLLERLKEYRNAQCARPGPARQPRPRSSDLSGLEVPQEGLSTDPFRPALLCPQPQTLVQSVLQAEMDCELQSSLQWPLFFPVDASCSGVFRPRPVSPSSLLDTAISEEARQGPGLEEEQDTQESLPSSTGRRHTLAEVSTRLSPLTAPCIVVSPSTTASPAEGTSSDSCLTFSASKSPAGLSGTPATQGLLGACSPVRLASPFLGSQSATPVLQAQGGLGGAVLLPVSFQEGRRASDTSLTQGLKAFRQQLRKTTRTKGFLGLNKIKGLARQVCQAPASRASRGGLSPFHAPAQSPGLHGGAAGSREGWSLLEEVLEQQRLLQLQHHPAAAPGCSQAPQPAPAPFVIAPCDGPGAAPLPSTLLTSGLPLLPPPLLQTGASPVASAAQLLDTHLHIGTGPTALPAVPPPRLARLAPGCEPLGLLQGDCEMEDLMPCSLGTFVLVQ
Abl, sequence (P00519 whole entry): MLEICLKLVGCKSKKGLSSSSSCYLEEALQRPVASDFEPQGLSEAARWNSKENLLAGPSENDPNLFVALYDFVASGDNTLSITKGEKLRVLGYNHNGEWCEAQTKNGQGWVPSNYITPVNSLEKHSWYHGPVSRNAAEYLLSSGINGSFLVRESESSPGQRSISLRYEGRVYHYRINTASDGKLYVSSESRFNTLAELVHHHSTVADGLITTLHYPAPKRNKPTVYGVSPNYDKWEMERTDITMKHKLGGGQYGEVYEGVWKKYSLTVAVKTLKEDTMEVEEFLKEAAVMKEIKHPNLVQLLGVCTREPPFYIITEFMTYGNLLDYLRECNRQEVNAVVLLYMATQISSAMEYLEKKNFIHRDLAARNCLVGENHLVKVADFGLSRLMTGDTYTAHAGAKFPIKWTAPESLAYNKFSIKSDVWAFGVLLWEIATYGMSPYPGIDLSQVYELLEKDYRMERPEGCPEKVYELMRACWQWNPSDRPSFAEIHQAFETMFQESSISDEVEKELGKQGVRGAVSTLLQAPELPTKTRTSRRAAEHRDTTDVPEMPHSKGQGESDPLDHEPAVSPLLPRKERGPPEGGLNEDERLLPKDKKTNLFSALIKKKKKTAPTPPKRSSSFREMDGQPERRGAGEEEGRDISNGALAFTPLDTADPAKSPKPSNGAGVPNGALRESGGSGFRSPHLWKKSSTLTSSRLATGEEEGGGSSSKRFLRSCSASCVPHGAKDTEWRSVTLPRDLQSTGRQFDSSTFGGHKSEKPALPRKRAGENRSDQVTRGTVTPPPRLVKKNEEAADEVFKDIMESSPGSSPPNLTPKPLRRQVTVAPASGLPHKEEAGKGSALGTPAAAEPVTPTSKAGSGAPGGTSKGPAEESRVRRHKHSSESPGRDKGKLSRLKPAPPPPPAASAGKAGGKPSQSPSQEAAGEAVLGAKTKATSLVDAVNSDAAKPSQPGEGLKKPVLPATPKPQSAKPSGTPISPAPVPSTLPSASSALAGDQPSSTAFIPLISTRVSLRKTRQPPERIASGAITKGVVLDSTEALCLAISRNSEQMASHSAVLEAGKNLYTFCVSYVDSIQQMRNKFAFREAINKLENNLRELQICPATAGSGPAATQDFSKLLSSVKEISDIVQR
SIK2, sequence (Q9H0K1 whole entry): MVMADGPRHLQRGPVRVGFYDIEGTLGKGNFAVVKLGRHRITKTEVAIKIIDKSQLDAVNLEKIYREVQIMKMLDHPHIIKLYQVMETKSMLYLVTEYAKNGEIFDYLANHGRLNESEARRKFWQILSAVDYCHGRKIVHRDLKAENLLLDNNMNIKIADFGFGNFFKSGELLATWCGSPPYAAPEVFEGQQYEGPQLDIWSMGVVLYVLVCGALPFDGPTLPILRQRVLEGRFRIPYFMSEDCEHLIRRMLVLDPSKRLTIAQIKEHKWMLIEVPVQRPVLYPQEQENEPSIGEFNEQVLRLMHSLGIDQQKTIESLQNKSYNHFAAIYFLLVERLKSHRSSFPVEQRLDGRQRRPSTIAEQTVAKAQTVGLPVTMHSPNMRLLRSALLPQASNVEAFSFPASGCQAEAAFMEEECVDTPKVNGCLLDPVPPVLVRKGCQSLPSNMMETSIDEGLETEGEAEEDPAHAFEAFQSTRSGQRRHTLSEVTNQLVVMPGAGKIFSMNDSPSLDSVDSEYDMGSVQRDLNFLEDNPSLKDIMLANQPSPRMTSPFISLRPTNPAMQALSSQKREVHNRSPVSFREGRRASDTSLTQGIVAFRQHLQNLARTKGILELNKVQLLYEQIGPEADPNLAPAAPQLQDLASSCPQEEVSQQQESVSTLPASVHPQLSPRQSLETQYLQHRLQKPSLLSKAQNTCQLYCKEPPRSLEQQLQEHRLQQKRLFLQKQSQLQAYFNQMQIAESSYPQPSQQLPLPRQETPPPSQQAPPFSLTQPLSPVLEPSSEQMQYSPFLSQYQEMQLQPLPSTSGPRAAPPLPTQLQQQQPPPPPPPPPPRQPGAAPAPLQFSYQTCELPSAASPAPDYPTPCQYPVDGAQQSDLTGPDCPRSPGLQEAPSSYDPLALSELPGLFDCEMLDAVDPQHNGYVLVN
Src, sequence (P12931 whole entry): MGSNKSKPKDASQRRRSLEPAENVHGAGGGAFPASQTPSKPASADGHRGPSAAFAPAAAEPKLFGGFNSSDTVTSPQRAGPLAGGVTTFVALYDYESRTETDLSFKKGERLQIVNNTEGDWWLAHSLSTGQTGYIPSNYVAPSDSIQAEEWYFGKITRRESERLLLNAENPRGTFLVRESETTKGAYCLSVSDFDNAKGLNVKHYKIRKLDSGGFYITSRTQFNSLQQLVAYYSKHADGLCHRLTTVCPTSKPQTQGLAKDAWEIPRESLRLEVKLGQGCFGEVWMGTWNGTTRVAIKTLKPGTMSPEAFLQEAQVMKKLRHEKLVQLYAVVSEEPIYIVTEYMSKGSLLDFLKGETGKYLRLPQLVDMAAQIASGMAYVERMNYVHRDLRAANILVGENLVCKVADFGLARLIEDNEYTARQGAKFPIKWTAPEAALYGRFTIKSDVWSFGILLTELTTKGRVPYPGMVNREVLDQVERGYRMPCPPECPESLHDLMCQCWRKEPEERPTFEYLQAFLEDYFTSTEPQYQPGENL

Ki [1] [nM]	Ki [2] [nM]	Ki [3] [nM]	Ki [4] [nM]	Ki [5] [nM]	Ki ([6]; 50 or 100 μM ATP, average) [nM]	Ki [6] [nM]	SMILES
0.181	0.409	0.82	10.5	91.3	31		Cc1cccc(F)c1N1Cc2cnc(N)cc2N([C@@H]2CCCNCC2)C1=O [Example 51, 7-amino-3-(2-fluoro-6-methyl-phenyl)-1-[(4R)-azepan-4-yl]-4H-pyrido[4,3-d]pyrimidin-2-one]
0.522	0.84	5.04	67.4	252	45.2		Cc1cccc(F)c1N1Cc2cnc(N)cc2N([C@@H]2CCCN(C)C2)C1=O [Example 81, 7-amino-3-(2-fluoro-6-methyl-phenyl)-1-[(3R)-1-methyl-3-piperidyl]-4H-pyrido[4,3-d]pyrimidin-2-one]
0.152	0.193	1.36	6.12	24.2	13.6		Cc1cccc(F)c1N1Cc2cnc(N)cc2N([C@@H]2CCCCNC2)C1=O [Example 50, 7-amino-3-(2-fluoro-6-methyl-phenyl)-1-[(3R)-azepan-3-yl]-4H-pyrido[4,3-d]pyrimidin-2-one]
0.676	2.2	4.71	11	40.5	57.6		CN[C@H]1CC[C@@H](N2C(=O)N(c3c(C)cccc3F)Cc3cnc(N)cc32)CC1 [Example 63, cis-7-amino-3-(2-fluoro-6-methyl-phenyl)-1-[4-(methylamino)cyclohexyl]-4H-pyrido[4,3-d]pyrimidin-2-one]
0.348	1.26	4	> 1000	132		68.5	Cc1cccc(F)c1N1Cc2cnc(N)cc2N([C@@H]2CCCNC2)C1=O [Example 48, 7-amino-3-(2-fluoro-6-methyl-phenyl)-1-[(3R)-3-piperidyl]-4H-pyrido[4,3-d]pyrimidin-2-one]
0.147	0.743	0.944	42.4	31.2	28.1		Cc1cccc(F)c1N1Cc2cnc(N)cc2N([C@H]2CC[C@@H](N)CC2)C1=O [Example 62, cis-7-Amino-1-(4-aminocyclohexyl)-3-(2-fluoro-6-methyl-phenyl)-4H-pyrido[4,3-d]pyrimidin-2-one]
0.368	1.26	6.28	104	391	88.5		Cc1cccc(F)c1N1Cc2cnc(N)nc2N([C@H]2CCCNC2)C1=O [Example 71, 7-amino-3-(2-fluoro-6-methyl-phenyl)-1-[(3S)-3-piperidyl]-4H-pyrimido[4,5-d]pyrimidin-2-one]
1.14	1.93	21.1	19.8	50.4	23.7		Cc1cccc(F)c1N1Cc2cnc(N)nc2N([C@@H]2CCCCNC2)C1=O [Example 72, 7-amino-1-[(3R)-azepan-3-yl]-3-(2-fluoro-6-methyl-phenyl)-4H-pyrimido[4,5-d]pyrimidin-2-one]
1.62	1.28	15.4	> 1000	> 1000	> 1000		Cc1cccc(F)c1N1Cc2cnc(N)cc2N([C@H]2CCNC2)C1=O [Example 78, 7-amino-3-(2-fluoro-6-methyl-phenyl)-1-[(3S)-pyrrolidin-3-yl]-4H-pyrido[4,3-d]pyrimidin-2-one]
0.14	0.467	0.302	14.9	126	32.5		Cc1cccc(F)c1N1Cc2cnc(N)cc2N([C@@H]2CCCN(C)CC2)C1=O [Example 84, 7-amino-3-(2-fluoro-6-methyl-phenyl)-1-[(4R)-1-methylazepan-4-yl]-4H-pyrido[4,3-d]pyrimidin-2-one]
0.232	0.384	1.19	43	163	84.4		Cc1cccc(F)c1N1Cc2cnc(N)cc2N([C@H]2CC[C@@H](N(C)C)CC2)C1=O [Example 46, cis-7-Amino-1-[4-(dimethylamino)cyclohexyl]-3-(2-fluoro-6-methyl-phenyl)-4H-pyrido[4,3-d]pyrimidin-2-one]

Continued, compound first:

SMILES	Ki [1] [nM]	Ki [2] [nM]	Ki [3] [nM]	Ki [4] [nM]	Ki [5] [nM]	Ki ([6]; 50 or 100 μM ATP, average) [nM]	Ki [6] [nM]
Cc1cccc(F)c1N1Cc2cnc(N)nc2N([C@H]2CC[C@H](N(C)C)CC2)C1=O [Example 45, trans-7-Amino-1-[4-(dimethylamino)cyclohexyl]-3-(2-fluoro-6-methyl-phenyl)-4H-pyrimido[4,5-d]pyrimidin-2-one]	0.244	0.749	0.992	15.7	55.5	34.2	
Cc1cccc(Cl)c1N1Cc2cnc(N)nc2N(C2CN(C)C2)C1=O [Example 23, 7-amino-3-(2-chloro-6-methyl-phenyl)-1-(1-methylazetidin-3-yl)-4H-pyrimido[4,5-d]pyrimidin-2-one]	14.2	28.6	54.7	> 10000	550	162	
Cc1cccc(F)c1N1Cc2cnc(N)nc2N([C@H]2CC[C@H](N)CC2)C1=O [Example 77, 7-amino-1-(4-aminocyclohexyl)-3-(2-fluoro-6-methyl-phenyl)-4H-pyrimido[4,5-d]pyrimidin-2-one]	0.222	0.685	0.739	27.7	64.6	17.3	
CNc1cc2c(cn1)CN(c1c(C)cccc1F)C(=O)N2C1CN(C)C1 [Example 10, 3-(2-Fluoro-6-methyl-phenyl)-7-(methylamino)-1-(1-methylazetidin-3-yl)-4H-pyrido[4,3-d]pyrimidin-2-one]	14.8	66.9	177	> 1000	> 1000	> 1000	
Cc1cccc(Cl)c1N1Cc2cnc(N)nc2N(C2CNC2)C1=O [Example 14, 7-amino-1-(azetidin-3-yl)-3-(2-chloro-6-methyl-phenyl)-4H-pyrimido[4,5-d]pyrimidin-2-one]	1.67	5.8	9.47	42.5	96.1	180	
Cc1cccc(F)c1N1Cc2cnc(N)nc2N(C2CCC(N)C2)C1=O (stereo not drawn) [Example 76, 7-amino-1-(3-aminocyclopentyl)-3-(2-fluoro-6-methyl-phenyl)-4H-pyrimido[4,5-d]pyrimidin-2-one]	0.205	0.612	1.18	4.22	29.2	9.16	
CN[C@H]1CC[C@H](N2C(=O)N(c3c(C)cccc3F)Cc3cnc(N)nc32)CC1 [Example 61, trans-7-amino-3-(2-fluoro-6-methyl-phenyl)-1-[4-(methylamino)cyclohexyl]-4H-pyrimido[4,5-d]pyrimidin-2-one]	0.101	0.171	0.28	28.7	36.4	19.8	
Cc1cccc(F)c1N1Cc2cnccc2N([C@H]2CCCCNC2)C1=O [Example 52, 3-(2-fluoro-6-methyl-phenyl)-1-[(3S)-azepan-3-yl]-4H-pyrido[4,3-d]pyrimidin-2-one]	13.7	42	288	> 10000	> 10000	1520	
Cc1cccc(F)c1N1Cc2cnc(N)nc2N([C@H]2CCN(C)C2)C1=O [Example 30, 7-amino-3-(2-fluoro-6-methyl-phenyl)-1-[(3S)-1-methylpyrrolidin-3-yl]-4H-pyrimido[4,5-d]pyrimidin-2-one]	3.8	12	64.5	444	1880		78.5
Cc1cccc(F)c1N1Cc2cnc(N)nc2N(CC2CCNCC2)C1=O [Example 12, 7-amino-3-(2-fluoro-6-methyl-phenyl)-1-(4-piperidylmethyl)-4H-pyrimido[4,5-d]pyrimidin-2-one]	0.149	0.822	0.721	3.12	39.3	27.9	
CN[C@H]1CC[C@@H](N2C(=O)N(c3c(C)cccc3F)Cc3cnc(N)nc32)CC1 [Example 60, cis-7-Amino-3-(2-fluoro-6-methyl-phenyl)-1-[4-(methylamino)cyclohexyl]-4H-pyrimido[4,5-d]pyrimidin-2-one]	0.464	1.38	2.6	18	73.6	40.1	
Cc1cccc(F)c1N1Cc2cnc(N)nc2N(C2CCCC(N)C2)C1=O (stereo not drawn) [Example 75, 7-amino-1-(3-aminocyclohexyl)-3-(2-fluoro-6-methyl-phenyl)-4H-pyrimido[4,5-d]pyrimidin-2-one]	0.209	0.681	3.04	13.8	11.6	9.26	
CNc1cc2c(cn1)CN(c1c(C)cccc1F)C(=O)N2[C@H]1CC[C@@H](N(C)C)CC1 [Example 40, cis-1-[4-(dimethylamino)cyclohexyl]-3-(2-fluoro-6-methyl-phenyl)-7-(methylamino)-4H-pyrido[4,3-d]pyrimidin-2-one]	1.25	3.93	18.4	62.7	626	106	
